# Results taken from patent US20240368115A1, “REGULATOR CONTAINING TRICYCLIC DERIVATIVE, PREPARATION METHOD THEREFOR AND APPLICATION THEREOF” (SHUJING BIOPHARMA CO., LTD, priority 2021, published 2024).
# Assays:
# Format in all cases: cell-based
# 5-HT2A receptor = 5-HT2A receptor (Homo sapiens, UniProt P28223); test: Calcium flux test for 5-HT2A receptor; details: CHO cell strain stably expressing 5-HT2A receptor; for IC50: calcium flux, antagonism of serotonin; for 5-HT2A Max Inh %: positive control ketanserin 10^−7 M
# 5-HT2A receptor, sequence (P28223 whole entry): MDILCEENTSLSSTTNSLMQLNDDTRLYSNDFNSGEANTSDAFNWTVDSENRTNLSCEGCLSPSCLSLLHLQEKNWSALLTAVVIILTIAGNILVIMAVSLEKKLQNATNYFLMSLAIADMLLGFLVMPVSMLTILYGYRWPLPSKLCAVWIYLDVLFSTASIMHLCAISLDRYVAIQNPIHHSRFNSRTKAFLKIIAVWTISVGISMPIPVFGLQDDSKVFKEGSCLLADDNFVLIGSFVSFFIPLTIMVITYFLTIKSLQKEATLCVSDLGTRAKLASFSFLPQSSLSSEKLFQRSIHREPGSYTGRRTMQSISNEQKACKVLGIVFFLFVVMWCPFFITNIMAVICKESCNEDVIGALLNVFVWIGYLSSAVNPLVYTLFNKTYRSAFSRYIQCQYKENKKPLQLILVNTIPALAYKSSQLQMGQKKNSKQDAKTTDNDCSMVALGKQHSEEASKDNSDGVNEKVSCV
# Method: • Fluo-4 calcium flux detection kit was purchased from Invitrogen; a CHO cell strain stably expressing 5-HT2A receptor was purchased from PerkinElmer; serotonin was purchased from Sigma; ketanserin was purchased from Targetmol; polylysine-coated 384-well plates and 384-well compound plates were purchased from Greiner Bio-One. Molecular Device FLIPR, Agilent Bravo liquid workstation, and Countstar BioTech cell counter.
# • (1) The cryopreserved cells were rapidly thawed in a water bath at 37° C., and the cells were resuspended in a plating medium. The cryopreservation solution was removed by centrifugation at 200×g. The pellet was resuspended in an appropriate amount of plating medium, 20 μL of cell suspension was counted using a cell counter, and the cell density was diluted to 1×10^6 cells/mL. • (2) 20 μL of cell suspension was added to a polylysine-coated 384-well plate (2×10^4 cells/well). • (3) The cell plate was incubated in a 37° C./5% CO2 incubator for 16-20 h.
# • (1) The cell plate was taken out from the incubator and centrifuged at 100×g to remove the medium. 20 μL of experimental buffer was added, and then 20 μL of 2× fluorescent probe solution was added. […] The cell plate and agonist positive compound plate were placed into the FLIPR instrument, the detection program was run, 10 μL of the diluted compound was transferred from the agonist compound plate to the cell plate, and the fluorescence signal was read. […] The cell plate and test compound plate were placed in the FLIPR instrument, the detection program was run, and 10 μL of the diluted compound was transferred from the test compound plate to the cell plate. […] The test compound plate was then taken out, and the agonist positive compound plate with 6×EC50 concentration was placed.
# Inhibition rate (Inhibition %)=(negative control reading value−compound reading value)/(negative control reading value−positive control reading value)×100%
# 5-HT1A receptor = biological target: T1, 5-HT1A receptor (Homo sapiens, UniProt P08908); test: 5-HT1A receptor cAMP agonist test; details: HEK293 cell strain stably expressing 5-HT1A receptor; for EC50: cAMP, forskolin 2.5×10^−7 M; for 5-HT1A Max Act %: positive control serotonin 10^−6 M
# T1 construct: expressed in transfected cells
# T1 sequence (P08908 1-422): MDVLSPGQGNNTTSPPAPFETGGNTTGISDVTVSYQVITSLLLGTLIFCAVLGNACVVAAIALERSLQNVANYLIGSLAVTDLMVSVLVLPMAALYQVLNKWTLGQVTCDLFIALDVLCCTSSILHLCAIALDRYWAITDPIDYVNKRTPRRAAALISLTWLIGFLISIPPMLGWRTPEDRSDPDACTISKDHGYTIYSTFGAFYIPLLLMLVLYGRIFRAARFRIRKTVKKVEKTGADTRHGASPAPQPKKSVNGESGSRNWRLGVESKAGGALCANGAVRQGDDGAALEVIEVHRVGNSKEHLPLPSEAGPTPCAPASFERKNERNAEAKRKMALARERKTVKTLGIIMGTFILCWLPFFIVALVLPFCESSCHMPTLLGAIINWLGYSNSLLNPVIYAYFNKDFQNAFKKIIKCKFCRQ
# Source text: (§1) • cAMP detection kit was purchased from Cisbio; an HEK293 cell strain stably expressing 5-HT1A receptor was constructed by Shanghai Shujing Biopharma Co., Ltd.; serotonin, forskolin, and IBMX were purchased from Sigma; ProxiPlate-384 well plates were purchased from PerkinElmer; HBSS was purchased from Thermo Fisher Scientific.
# (§2) • (1) The cultured cells were digested with trypsin, and the cell suspension was washed with HBSS buffer after the digestion was terminated. The medium was removed by centrifugation at 200×g. The pellet was resuspended in an appropriate amount of experimental buffer, and 20 μL of cell suspension was counted using a cell counter and diluted to 0.4×10^6 cells/mL. • (2) 5 μL of cell suspension was added to a ProxiPlate-384 well plate (2×10^3 cells/well). • (3) Test compounds were serially diluted in an experimental buffer, and 5 μL of the mixed solution was transferred to the reaction plate with Bravo.
# D2L receptor = biological target: T2, D2L receptor (Homo sapiens, UniProt P14416); test: D2L receptor cAMP agonist test; details: HEK293 cell strain stably expressing D2L receptor; for EC50: cAMP, forskolin 0.5 μM; for D2L Max Act %: positive control dopamine 1 μM
# T2 construct: expressed in transfected cells
# T2 sequence (P14416 whole entry): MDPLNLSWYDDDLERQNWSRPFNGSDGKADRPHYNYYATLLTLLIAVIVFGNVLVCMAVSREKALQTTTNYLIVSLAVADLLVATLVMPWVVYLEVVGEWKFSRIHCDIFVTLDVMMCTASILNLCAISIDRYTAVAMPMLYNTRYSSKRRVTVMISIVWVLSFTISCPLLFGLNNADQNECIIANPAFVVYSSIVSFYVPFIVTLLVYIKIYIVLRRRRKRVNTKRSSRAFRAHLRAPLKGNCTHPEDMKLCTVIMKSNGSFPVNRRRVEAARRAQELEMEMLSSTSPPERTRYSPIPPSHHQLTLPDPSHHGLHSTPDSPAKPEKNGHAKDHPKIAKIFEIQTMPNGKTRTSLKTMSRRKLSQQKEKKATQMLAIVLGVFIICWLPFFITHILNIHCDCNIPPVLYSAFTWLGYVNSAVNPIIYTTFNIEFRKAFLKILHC
# Method: as §1, with “D2L” for “5-HT1A”, “dopamine,” for “serotonin,”
# • (1) The cryopreserved cells were thawed in a water bath at 37° C., the cell suspension was resuspended in HBSS buffer, and the mixed solution was centrifuged at 750 rpm for 5 min to remove the medium. The pellet was resuspended in an appropriate amount of experimental buffer, and an appropriate amount of cell suspension was diluted to 0.4×10^6 cells/mL. • (2) 5 μL of cell suspension was added to a ProxiPlate-384 well plate (2×10^3 cells/well), and the plate was centrifuged at 1000 rpm for 1 min. • (3) Test compounds were serially diluted in an experimental buffer, and 5 μL of the mixed solution was transferred to the reaction plate with Bravo.
# D2S receptor = biological target: T3, D2S receptor (Homo sapiens, UniProt P14416); test: D2S receptor cAMP agonist test; details: HEK293 cell strain stably expressing D2S receptor; for EC50: cAMP, forskolin 5×10^−7 M; for D2S Max Act %: positive control dopamine 1×10^−7 M
# T3 construct: expressed in transfected cells
# T3 sequence (P14416 1-414 isoform P14416-2): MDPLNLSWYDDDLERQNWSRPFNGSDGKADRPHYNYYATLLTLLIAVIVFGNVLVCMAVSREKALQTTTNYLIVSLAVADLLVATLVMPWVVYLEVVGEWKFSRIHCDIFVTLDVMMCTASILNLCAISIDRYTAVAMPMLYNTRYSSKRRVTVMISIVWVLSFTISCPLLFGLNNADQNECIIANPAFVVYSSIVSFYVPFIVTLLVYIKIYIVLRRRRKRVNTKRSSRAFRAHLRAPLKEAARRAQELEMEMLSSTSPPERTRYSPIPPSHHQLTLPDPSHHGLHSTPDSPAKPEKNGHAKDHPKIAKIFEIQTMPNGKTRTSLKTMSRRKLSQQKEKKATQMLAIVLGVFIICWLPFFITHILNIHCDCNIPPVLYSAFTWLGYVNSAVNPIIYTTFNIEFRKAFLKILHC
# Source text: as §1, with “cAMP” for “• cAMP”, “D2S” for “5-HT1A”, “dopamine,” for “serotonin,”
# as §2, with “0.6×10^6” for “0.4×10^6”, “(3×10^3” for “(2×10^3”
SMILES,IC50 (5-HT2A receptor),5-HT2A Max Inh % (5-HT2A receptor),EC50 (5-HT1A receptor),5-HT1A Max Act % (5-HT1A receptor),EC50 (D2L receptor),D2L Max Act % (D2L receptor),EC50 (D2S receptor),D2S Max Act % (D2S receptor)
"O=C1Nc2cc(OCCCCN3CCN(c4cccc5ccsc45)CC3)ccc2C2CC12 (centres unmarked) [Example 48, 5-(4-(4-(Benzo[b]thiophen-7-yl)piperazin-1-yl)butoxy)-1,1a,3,7b-tetrahydro-2H-cyclopropa[c]quinolin-2-one]",2410 nM,100.5%,366 nM,55.2%,0.49 nM,49.0%,0.89 nM,114.8%
"O=C1Nc2cc(OCCCCN3CCN(c4cccc5c4CC(F)(F)C5=O)CC3)ccc2C2CC12 (centres unmarked) [Example 47, 5-(4-(4-(2,2-difluoro-1-one-2,3-dihydro-1H-inden-4-yl)piperazin-1-yl)butoxy)-1,1a,3,7b-tetrahydro-2H-cyclopropa[c]quinolin-2-one]",268 nM,96.0%,207 nM,75.8%,0.84 nM,35.9%,0.97 nM,102.9%
"O=C1Nc2cc(OCCCCN3CCN(c4cccc5[nH]ccc45)CC3)ccc2C2CC12 (centres unmarked) [Example 52, 5-(4-(4-(1H-Indol-4-yl)piperazin-1-yl)butoxy)-1,1a,3,7b-tetrahydro-2H-cyclopropa[c]quinolin-2-one]",1590 nM,99.9%,–,–,0.31 nM,65.3%,–,–
"O=C1Nc2cc(OCCCCN3CCN(c4cccc(Cl)c4O)CC3)ccc2C2CC12 (centres unmarked) [Example 39, 5-(4-(4-(3-Chloro-2-hydroxyphenyl)piperazin-1-yl)butoxy)-1,1a,3,7b-tetrahydro-2H-cyclopropa[c]quinolin-2-one]",2930 nM,94.2%,–,–,–,–,–,–
"O=C1Nc2cc(OCCCCN3CCN(c4cccc5c4CCC5)CC3)ccc2C2CC12 (centres unmarked) [Example 43, 5-(4-(4-(2,3-Dihydro-1H-inden-4-yl)piperazin-1-yl)butoxy)-1,1a,3,7b-tetrahydro-2H-cyclopropa[c]quinolin-2-one]",971 nM,100.3%,158 nM,67.7%,0.3 nM,42.8%,0.92 nM,134.9%
"O=C1Nc2cc(OCCCCN3CCN(c4cccc5c4OCC5)CC3)ccc2C2CC12 (single isomer, unassigned) [Example 44-P1]",192 nM,99.6%,12.7 nM,49.5%,0.26 nM,45.9%,0.98 nM,96.8%
"O=C1Nc2cc(OCCCCN3CCN(c4cccc(O)c4Cl)CC3)ccc2C2CC12 (centres unmarked) [Example 38, 5-(4-(4-(2-Chloro-3-hydroxyphenyl)piperazin-1-yl)butoxy)-1,1a,3,7b-tetrahydro-2H-cyclopropa[c]quinolin-2-one]",4850 nM,98.1%,–,–,1.39 nM,32.3%,0.88 nM,92.4%
"O=C1Nc2cc(OCCCCN3CCN(c4cccc5c4CCC5)CC3)ccc2C2CC12 (single isomer, unassigned) [Example 43-P2]",1130 nM,96.6%,92.4 nM,60.6%,0.25 nM,35.7%,0.92 nM,125.3%
"O=C1Nc2cc(OCCCCN3CCN(c4cccc5c4OCC5)CC3)ccc2C2CC12 (single isomer, unassigned) [Example 44-P2]",290 nM,99.7%,7.05 nM,48.0%,0.22 nM,53.9%,0.92 nM,89.1%
"O=C1Nc2cc(OCCCCN3CCN(c4cccc5c4CCC5)CC3)ccc2C2CC12 (single isomer, unassigned) [Example 43-P1]",853 nM,100.7%,194 nM,68.3%,0.9 nM,37.9%,1.3 nM,123.1%
